From publication PMC10216478, “Development of a Non-Peptide Angiotensin II Type 1 Receptor Ligand by Structural Modification of Olmesartan as a Biased Agonist” (Biomedicines, 2023)

Target: T1, AT1 wild-type receptor (Rattus norvegicus, UniProt P25095)
T1 construct: expressed in transfected cells; host or cells: COS7
T1 sequence (P25095 1-359): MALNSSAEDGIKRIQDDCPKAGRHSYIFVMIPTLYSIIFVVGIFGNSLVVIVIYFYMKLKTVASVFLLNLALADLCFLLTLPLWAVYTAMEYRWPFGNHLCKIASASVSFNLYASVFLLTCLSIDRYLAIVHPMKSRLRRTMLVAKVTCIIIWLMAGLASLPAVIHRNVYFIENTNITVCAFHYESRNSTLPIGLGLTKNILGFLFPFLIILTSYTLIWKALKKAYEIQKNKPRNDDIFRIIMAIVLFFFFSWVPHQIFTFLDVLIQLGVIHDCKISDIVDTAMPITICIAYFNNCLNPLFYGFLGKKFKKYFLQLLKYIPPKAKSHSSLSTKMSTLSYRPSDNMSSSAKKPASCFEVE
Test: IP production assay in COS7 cells expressing AT1 wild-type receptor
Format: cell-based
Settings: for Effect on IP production: AT1 wild-type receptor, COS7 cells, 1 µM ligands or 0.1 µM Ang II, 30 min, n = 5, vs. (-); for Mode of action with regard to IP production: authors' classification from IP production at AT1 wild-type receptor
Experimental: The synthetic rat AT1 receptor gene, which was cloned in the shuttle expression vector pMT-2, was used for expression and mutagenesis, as described previously. […] In the experiments, cells were grown without a cell-growth supplement. To express the AT1 receptor protein, 10 µg of purified plasmid DNA per 10^7 cells was used in the transfection. Wild-type and mutated AT1 receptors were transiently transfected into cells using Lipofectamine 2000 liposomal reagent (Roche Applied Science, Penzberg, Germany). Cells were plated and grown and were 70–90% confluent at the time of transfection. We incubated plasmid DNA (10 µg)–lipid (10 µL) complexes for 5 min at room temperature and added and incubated the complexes with cells for 24 h. We then analyzed the parameters in transfected cells. […] Transfected cells that had been cultured for 48–72 h were harvested. Cell membranes were prepared using the nitrogen Parr bomb disruption or freeze–thaw methods.
Ligand (such as agonist or antagonist)-induced IP production through the AT1 receptor in transfected COS7 cells transiently expressing the AT1 receptor was measured to evaluate cell signaling as a second messenger for controlling blood pressure, since the increases in the intracellular Ca^2+ concentration were the result of IP accumulation, which indicated vasoconstriction. As a surrogate model with higher levels of AT1 receptor expression, COS7 cells are suitable for IP measurement because it is easy to detect differences in IP production. Cells were labeled for 24 h with [^3H]-myoinositol at 37 °C in DMEM containing 10% FBS. Next, the cells were washed with buffer 3 times and incubated with a medium containing 10 mM LiCl for 20 min; 0.1 µM Ang II or 1 µM ligands were added and incubation was continued for another 30 min at 37 °C. After incubation, the medium was removed, and total soluble IP was extracted from the cells using the perchloric acid extraction method, as described previously. Cells were plated at a field density of 5 × 10^3 cells/cm^2 in 60 mm dishes and cultured in a fresh growth medium at 37 °C in a DMEM 5% CO2 incubator. […] The culture medium was changed 48 h after transfection and 1.5 mL of 1 μCi/mL of [^3H]-myoinositol was added to each 60-mm dish at 37 °C in DMEM containing 10% FBS. After labeling, the cells were washed with buffer 3 times and incubated with a medium containing 10 mM LiCl for 20 min. The indicated concentration of ligands was added and incubation was continued for an additional 30 min at 37 °C. After incubation, the medium was removed, and total soluble IP was extracted from the cells using the perchloric acid extraction method. Total IP production was expressed as the sum of radioactivity, as described previously.

Effect on IP production	Mode of action with regard to IP production	SMILES
did not change IP production	neutral antagonist	CCCc1nc(C(C)(C)O)c(C(N)=O)n1Cc1ccc(-c2ccccc2-c2nnn[nH]2)cc1 [R239470]
significantly decreased	inverse agonist	CCCc1nc(C(C)(C)O)c(C(=O)O)n1Cc1ccc(-c2cc(Cc3ccc(O)cc3)ccc2-c2nnn[nH]2)cc1 [R781253]
increased IP production	agonist	CCCc1nc(C(C)(C)O)c(C(N)=O)n1Cc1ccc(-c2cc(Cc3ccc(O)cc3)ccc2-c2nnn[nH]2)cc1 [R794847]

SMILES	Effect on IP production	Mode of action with regard to IP production
CCCc1nc(C(C)(C)O)c(C(=O)O)n1Cc1ccc(-c2ccccc2-c2nnn[nH]2)cc1 [Olmesartan, olmesartan]	significant reduction in basal IP production levels	inverse agonism
